Like-named read-outs stand apart in the source and are kept apart here.
What was measured:
[1] = Turbidity, derived count rate of scattered light; type: physicochemical; conditions: for Log Count Rate: log of derived count rate; for Count Rate: turbidity; for Count Rate / kcps: derived count rate of scattered light at 633 nm, 173°, from zeta-potential measurement, 0.1 mg/mL in 1 mM KCl after 1 d at 1 mg/mL in PBS, turbidity / microscopic aggregation, mean of triplicate
Outline: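 Samples: 1 mg/mL in PBS pH 7.4 (from DMSO), 1 d at RT, then diluted in 1 mM KCl immediately before measurement. Triplicates, two independent runs averaged.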

[2] = Zeta-potential measurement; type: physicochemical; conditions: for Zeta-pot. / mV: zeta potential of peptide, Fig S15 source data; for Zeta pot. / mV: 1 mg/mL in PBS pH 7.4 from 10 mg/mL DMSO stock, 1 d RT, 60 µL diluted in 600 µL 1 mM KCl, Zetasizer Nano ZS, Smoluchowski, mean of triplicate; for Zeta-Potential / mV: Figure 7B
Outline: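 In this measurement, peptides aggregated for a day at RT in phosphate-buffered saline (pH 7.4, 1 mg/mL) are diluted into 1 mM potassium chloride, and the electrophoretic mobility is translated into zeta potential by Smoluchowski's relation.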

TZM-bl cells = type: cell-based; conditions: CellTiter-Glo, mean of n = 3 replicates; for viability 0.26 µM: peptide 0.26 µM; for viability 1.3 µM: peptide 1.3 µM; for viability 6.5 µM: peptide 6.5 µM
Outline: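 Viability of TZM-bl cells (10,000 seeded) after 3 days with serially diluted peptides, measured by CellTiter-Glo luminescence. Values normalized to 100% metabolic activity; triplicates.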

[3] = Turbidity, derived count rate of scattered light; type: physicochemical; conditions: log10 of derived count rate of scattered light, Figure 7B
[4] = derived count rate of scattered light
[5] = Fig S8 panels A, C, asymmetric log errors
[6] = Fig S8 panels B, D, derived count rate of scattered light
[7] = derived count rate from zeta measurement, mean
[8] = derived count rate of scattered light, mean, std deviation in separate column

Substance	Zeta Count Rate Category ([1]; category 1 / 0, no key given)	Zeta Count Rate / kcps [1, 4]	Zeta Pot. / mV [2]	Zeta category ( +1 = if > 4 mV;-1 = if < -4 mV; 0 = -4mV to 4 mV) [2]	Zeta-pot. / mV [2]	viability 0.26 µM (TZM-bl cells)	viability 1.3 µM (TZM-bl cells)	viability 6.5 µM (TZM-bl cells)	Log10 Count Rate [3]	Count Rate / kcps [1]	Zeta pot. / mV [2]	Zeta-Potential / mV ([2]; mean)	also measured
RGEKIKIQINM [CN18]	1	594.6 kcps	15.3 mV	1 (+1 = if > 4 mV)	15.3 mV	93.96	87.66	79.74					
HHHHKIKIQINMYYYY [TM16]	1	5659 kcps	7.807 mV	1 (+1 = if > 4 mV)	7.807 mV	118.7	114.9	85.37					Log Count Rate [1, 5]: 3.753; Log Count Rate ([1]; Fig S8 panels B, D): 3.753; Count Rate [1, 6]: 5658.77
RGDKIKIQINMC [psis29]				1 (+1 = if > 4 mV)	12.2 mV	103.4	101.5	82.89					Zeta Count Rate / kcps [1, 7]: 1404 kcps; Zeta Count Rate / kcps [1, 8]: 1404 kcps; Zeta Count Rate Category ([1]; key not given): 1; Zeta category ( +1 = if > 4 mV;-1 = if < -4 mV; 0 = -4mV to 4 mV) ([2]; FigS26): 1 (+1 = if > 4 mV); Zeta Pot. / mV ([2]; mean, Std in separate column): 12.2 mV
HIHIQIC [CN12]	1	260.6 kcps	-3.687 mV	0 (0 = -4mV to 4 mV)	-3.687 mV	99.21	105	101.2					Log Count Rate [1, 5]: 2.416; Log Count Rate ([1]; Fig S8 panels B, D): 2.416; Count Rate [1, 6]: 260.57
KYFIL [reference compound]									4.277	18903 kcps	-7.2 mV	-7.18 mV	
KIKIKIKIWW [TM21]				1 (+1 = if > 4 mV)	15.4 mV	95.22	94.23	80.72					Zeta Count Rate / kcps [1, 8]: 9436 kcps; Zeta Pot. / mV ([2]; mean, Std in separate column): 15.4 mV
GYVIIK [reference compound]									1.476	30 kcps	9.9 mV	9.88 mV	
IKFLSVN [reference compound]									2.136	137 kcps	5.9 mV	5.9 mV	
IFQINS [reference compound]									1.56	36 kcps	-11.0 mV	-10.98 mV	
RGDSGGGGGGKIKIQIC [TM114 / RC17]					16.7 mV	105.8	97.96	78.89					Log Count Rate [1, 5]: 4.018; Log Count Rate ([1]; Fig S8 panels B, D): 4.018; Count Rate [1, 6]: 10416.2
RGECKFKFQF [CN16]	1	219.3 kcps	23.97 mV	1 (+1 = if > 4 mV)	23.97 mV	105.4	106.3	102.8					
KIKIKIKIWWWW [TM12]				1 (+1 = if > 4 mV)	15.2 mV	125.9	106.4	86.48					Zeta Count Rate / kcps [1, 8]: 12420.6 kcps; Zeta Pot. / mV ([2]; mean, Std in separate column): 15.2 mV
RGDKIKIQINMWQ [MG9a]				1 (+1 = if > 4 mV)	6.59 mV	104.4	105.9	88.59					Zeta Count Rate Category ([1]; category 1 or 0 from count rate, key not given): 1; Zeta Count Rate / kcps ([1]; derived count rate of scattered light, mean, std deviation in next column): 1554 kcps; Zeta Count Rate / kcps [1, 8]: 1554 kcps; Zeta category ( +1 = if > 4 mV;-1 = if < -4 mV; 0 = -4mV to 4 mV) ([2]; category from zeta potential): 1 (+1 = if > 4 mV); Zeta Pot. / mV ([2]; mean, Std Zeta in next column): 6.59 mV; Zeta Pot. / mV ([2]; mean, Std in separate column): 6.59 mV
CKIKIQIRGD [psis21]					7.157 mV	104.5	107.1	97.19					
RQGNINIVA [reference compound]									1.551	36 kcps	10.2 mV	10.17 mV	
KLVFFAK [reference compound]									1.159	14 kcps	3.2 mV	3.23 mV	
RLRLTLC [CN13]	1	125.6 kcps	19.67 mV	1 (+1 = if > 4 mV)	19.67 mV	120.7	120.4	108.4					
RATVYV [reference compound]									1.621	42 kcps	-5.2 mV	-5.17 mV	
MKVIFLKDVKG [reference compound]									2.137	137 kcps	9.6 mV	9.62 mV	
CKIKIQIII [AR0 / F19]				1 (+1 = if > 4 mV)	16.2 mV	109.6	100.4	87.63					Zeta Count Rate / kcps [1, 8]: 4953 kcps; Zeta Pot. / mV ([2]; mean, Std in separate column): 16.2 mV
HHHHKAKAKAKAYYYY [TM10]	1	240.9 kcps	7.03 mV	1 (+1 = if > 4 mV)	7.03 mV	107.4	112.1	104.4					
NKGAII [reference compound]									1.831	68 kcps	-9.5 mV	-9.46 mV	
RGDKIKIQINM [MG8a / CN17]	0	57.2 kcps	16.43 mV	1 (+1 = if > 4 mV)	16.43 mV	107.7	105.2	86.63					Zeta Count Rate / kcps [1, 7]: 57.2 kcps; Zeta Count Rate / kcps [1, 8]: 57.2 kcps; Zeta Count Rate Category ([1]; key not given): 0; Zeta Pot. / mV ([2]; mean, Std in separate column): 16.43 mV
VHDCVNITIK [reference compound]									4.098	12542 kcps		9.27 mV	
KFKFQFFF [TG12]	1	3039 kcps	13.27 mV	1 (+1 = if > 4 mV)	13.27 mV	108.2	109.4	97					Zeta Count Rate / kcps [1, 7]: 3039 kcps; Zeta Count Rate / kcps [1, 8]: 3039 kcps; Zeta Count Rate Category ([1]; key not given): 1; Zeta Pot. / mV ([2]; mean, Std in separate column): 13.27 mV

From publication PMC10447463, “Data-mining unveils structure–property–activity correlation of viral infectivity enhancing self-assembling peptides” (Nature Communications, 2023)
